In the PolyMetriX glass transition set one finds glass transition temperature data, which are given here for 59 compounds.

Structures are written as SMILES. ± gives the standard deviation of the reports.

`*C(=O)c1ccc2c(c1)C(=O)N(c1c(C)cc(Cc3cc(C)c(N4C(=O)c5ccc(*)cc5C4=O)c(C)c3)cc1C)C2=O` (repeat unit) yielded a glass transition temperature of 320.00 ± 16 °C.
In the case of `*C(=O)c1ccc2c(c1)C(=O)N(c1ccc(C)c(N3C(=O)c4ccc(*)cc4C3=O)c1)C2=O` (repeat unit) it was 317.2 ± 3.2 °C.
As to `*C(=O)c1ccc2c(c1)C(=O)N(c1ccc(Cc3ccc(N4C(=O)c5ccc(*)cc5C4=O)cc3)cc1)C2=O` (repeat unit), the glass transition temperature came to 292.50 ± 9.3 °C.
Turning to `*C(C)C(*)C(=O)OC12CC3CC(CC(C3)C1)C2` (repeat unit), the glass transition temperature came out at 236.50 °C.
`*C(F)(F)C(*)(F)C(F)(F)C(F)(F)C(F)(F)C(F)(F)C(F)(F)F` (repeat unit): the glass transition temperature was 232.50 °C.
Consider `*C(F)(F)C(*)(F)OC(F)(F)F` (repeat unit), for which the glass transition temperature was -5.00 °C.
`*C(F)(F)C(*)(F)c1ccccc1` (repeat unit): the glass transition temperature turned out to be 206.00 °C.
Consider `*C(F)(F)C1(*)OC(F)(C(F)(F)F)C(F)(C(F)(F)F)O1` (repeat unit), for which the glass transition temperature is 165.00 °C.
Compound `*CC(C#N)C(CCC(C)(O)C=C)C(*)(C)C` (repeat unit) came in with a glass transition temperature of 50.00 °C.
In the case of `*CC(OC1CCCCC1)C1C(=O)OC(=O)C1*` (repeat unit) it was 201.00 °C.
Turning to `*CC(c1ccccn1)C(c1ccccc1)C(*)c1ccccn1` (repeat unit), the glass transition temperature turned out to be 150.00 °C.
Consider `*CC/C=C(/*)CCCCCCCCCC` (repeat unit), for which the glass transition temperature was -53.00 °C.
In the case of `*CCCCCCn1ccc(-c2cccc(-c3ccn(*)n3)c2)n1` (repeat unit), the glass transition temperature was 70.00 °C.
In the case of `*Oc1ccc(-c2ccc(Oc3ccc(C(=O)c4cccc5cccc(C(=O)c6ccc(*)cc6)c45)cc3)cc2)cc1` (repeat unit), the glass transition temperature turned out to be 226.50 °C.
`*Oc1ccc(-c2ccc(Oc3ccc(C(=O)c4ccccc4-c4ccccc4C(=O)c4ccc(*)cc4)cc3)cc2)cc1` (repeat unit) showed a glass transition temperature of 193.00 °C.
In the case of `*Oc1ccc(C(c2ccc(Oc3ccc(C(=O)c4cccc5cccc(C(=O)c6ccc(*)cc6)c45)cc3)cc2)(C(F)(F)F)C(F)(F)F)cc1` (repeat unit), the glass transition temperature was determined as 213.00 °C.
Consider `*Oc1ccc(C(c2ccc(Oc3ccc(C(=O)c4ccccc4-c4ccccc4C(=O)c4ccc(*)cc4)cc3)cc2)(C(F)(F)F)C(F)(F)F)cc1` (repeat unit), for which the glass transition temperature turned out to be 178.50 °C.
The compound `*c1cc(CCCCCCCCCC)c(*)s1` (repeat unit) returned a glass transition temperature of -30.00 ± 4.2 °C.
As to `*c1ccc(*)s1` (repeat unit), the glass transition temperature was determined as 152.17 ± 89 °C.
The value for `*c1ccc(-c2ccc(-n3c(=O)c4cc5c(=O)n(*)c(=O)c5cc4c3=O)cc2C)c(C)c1` (repeat unit) was 369.2 ± 6.7 °C; that for `*c1ccc(-c2nc(-c3cccc(-c4nnc(-c5ccccc5)c(*)n4)n3)nnc2-c2ccccc2)cc1` (repeat unit) was 260.00 °C; that for `*c1ccc(Cc2ccc(-n3nccc3-c3cccc(-c4ccnn4*)c3)cc2)cc1` (repeat unit) was 212.00 °C.
`*c1ccc(Cc2cccc(-n3c(=O)c4cc5c(=O)n(*)c(=O)c5cc4c3=O)c2)cc1` (repeat unit): the glass transition temperature is 339.00 °C.
In turn, `*c1ccc(N2C(=O)c3ccc(Oc4ccc5c(c4)C(=O)N(*)C5=O)cc3C2=O)cc1` (repeat unit) yielded a glass transition temperature of 355.8 ± 42 °C.
The value for `*c1ccc(Oc2ccc(-c3cnnc(-c4cccc(-c5ncc(*)nn5)n4)n3)cc2)cc1` (repeat unit) was 223.00 °C.
The value for `*c1ccc(Oc2ccc(C(C)(C)c3ccc(Oc4ccc(N5C(=O)c6ccc(-c7ccc8c(c7)C(=O)N(*)C8=O)cc6C5=O)cc4)cc3)cc2)cc1` (repeat unit) was 237.50 ± 15 °C; that for `*c1ccc(Oc2ccc(N3C(=O)c4ccc(Oc5ccc(Oc6ccc7c(c6)C(=O)N(*)C7=O)cc5)cc4C3=O)cc2)cc1` (repeat unit) was 241.00 ± 12 °C; that for `*c1ccc(Oc2ccc(N3C(=O)c4cccc(Oc5ccc(Oc6cccc7c6C(=O)N(*)C7=O)cc5)c4C3=O)cc2)cc1` (repeat unit) was 254.00 ± 15 °C.
In turn, `*c1ccc(Oc2ccc(Oc3ccc(N4C(=O)c5ccc(Oc6ccc7c(c6)C(=O)N(*)C7=O)cc5C4=O)cc3)cc2)cc1` (repeat unit) displayed a glass transition temperature of 247.50 ± 6.6 °C.
In turn, `*c1ccc(Oc2cccc(N3C(=O)c4ccc(Oc5ccc6c(c5)C(=O)N(*)C6=O)cc4C3=O)c2)cc1` (repeat unit) displayed a glass transition temperature of 232.00 ± 18 °C.
Compound `*c1ccc(Oc2cccc(Oc3ccc(N4C(=O)c5ccc(-c6cccc7c6C(=O)N(*)C7=O)cc5C4=O)cc3)c2)cc1` (repeat unit) had a glass transition temperature of 248.00 ± 25 °C.
On to `*c1ccc2c(c1)C(=O)N(c1cc(C)c(N3C(=O)c4ccc(C(*)(C(F)(F)F)C(F)(F)F)cc4C3=O)cc1C)C2=O` (repeat unit), for which the glass transition temperature amounted to 367.00 ± 17 °C.
On to `*c1ccc2c(c1)C(=O)N(c1ccc(Oc3ccc(N4C(=O)c5ccc(C(*)(C(F)(F)F)C(F)(F)F)cc5C4=O)cc3)cc1)C2=O` (repeat unit), for which the glass transition temperature was found to be 295.50 ± 11 °C.
The value for `*c1ccc2c(c1)C(=O)N(c1ccc(Oc3cccc(Oc4ccc(N5C(=O)c6ccc(C(*)(C(F)(F)F)C(F)(F)F)cc6C5=O)cc4)c3)cc1)C2=O` (repeat unit) was 241.50 ± 18 °C.
Take `*c1ccc2c(c1)C(=O)N(c1cccc(N3C(=O)c4ccc(C(*)(C(F)(F)F)C(F)(F)F)cc4C3=O)c1C)C2=O` (repeat unit): the glass transition temperature amounted to 353.50 °C.
For the compound `*c1ccc2c(c1)C(=O)N(c1cccc(S(=O)(=O)c3cccc(N4C(=O)c5ccc(C(*)(C(F)(F)F)C(F)(F)F)cc5C4=O)c3)c1)C2=O` (repeat unit), the glass transition temperature turned out to be 275.00 ± 5.7 °C.
`*c1ccc2c(c1)C(CCCCCC)(CCCCCC)c1cc(*)ccc1-2` (repeat unit) came in with a glass transition temperature of 102.50 ± 2.1 °C.
For `*c1cccc(-c2cccc(C(F)(F)C(F)(F)C(*)(F)F)c2)c1` (repeat unit), the glass transition temperature was found to be 45.00 °C.
Regarding `*c1cccc(-c2nc3cc(-c4ccc5[nH]c(*)nc5c4)ccc3[nH]2)c1` (repeat unit), the glass transition temperature is 410.00 °C.
Compound `*c1cccc(-c2nc3ccc(-c4ccc5nc(*)sc5c4)cc3s2)c1` (repeat unit) displayed a glass transition temperature of 495.00 °C.
In the case of `*c1cccc(-n2c(=O)c3cc4c(=O)n(*)c(=O)c4cc3c2=O)c1` (repeat unit), the glass transition temperature is 430.00 °C.
Take `*c1cccc(-n2nc(-c3ccccc3)c3cc(Oc4ccc5c(-c6ccccc6)nn(*)c(=O)c5c4)ccc3c2=O)c1C#N` (repeat unit): the glass transition temperature turned out to be 301.00 °C.
In the case of `*c1cccc(N2C(=O)C(=O)N(c3ccc(Cc4ccc(N5C(=O)C(=O)N(*)C5=O)cc4)cc3)C2=O)n1` (repeat unit) it was 237.00 °C.
In turn, `*c1cccc(N2C(=O)c3ccc(-c4ccc5c(c4)C(=O)N(*)C5=O)cc3C2=O)c1` (repeat unit) came in with a glass transition temperature of 333.2 ± 39 °C.
With `*c1cccc(N2C(=O)c3ccc(Oc4ccc5c(c4)C(=O)N(*)C5=O)cc3C2=O)c1` (repeat unit), the glass transition temperature worked out at 270.50 ± 13 °C.
Consider `*c1cccc(Oc2ccc(C(c3ccc(Oc4cccc(-n5c(=O)c6cc7c(=O)n(*)c(=O)c7cc6c5=O)c4)cc3)(C(F)(F)F)C(F)(F)F)cc2)c1` (repeat unit), for which the glass transition temperature came out at 226.50 ± 12 °C.
Consider `*c1cccc(Oc2cccc(N3C(=O)c4ccc(Oc5ccc6c(c5)C(=O)N(*)C6=O)cc4C3=O)c2)c1` (repeat unit), for which the glass transition temperature amounted to 206.00 ± 1.4 °C.
Take `*c1cccc(Oc2cccc(Oc3cccc(-n4c(=O)c5cc6c(=O)n(*)c(=O)c6cc5c4=O)c3)c2)c1` (repeat unit): the glass transition temperature amounted to 221.00 °C.
Consider `*c1cccc(Oc2cccc(Oc3cccc(N4C(=O)c5ccc(-c6ccc7c(c6)C(=O)N(*)C7=O)cc5C4=O)c3)c2)c1` (repeat unit), for which the glass transition temperature is 205.00 ± 3 °C.
Regarding `*c1cccc(P(=O)(c2cccc(-n3c(=O)c4cc5c(=O)n(*)c(=O)c5c(-c5ccc(C(F)(F)F)cc5)c4c3=O)c2)c2cc(C(F)(F)F)cc(C(F)(F)F)c2)c1` (repeat unit), the glass transition temperature came out at 292.00 °C.
The value for `*c1cccc(P(=O)(c2ccccc2)c2cccc(-n3c(=O)c4c(-c5ccc(C(F)(F)F)cc5)c5c(=O)n(*)c(=O)c5c(-c5ccc(C(F)(F)F)cc5)c4c3=O)c2)c1` (repeat unit) was 334.00 °C; that for `*c1cccc(P(=O)(c2ccccc2)c2cccc(-n3c(=O)c4cc5c(=O)n(*)c(=O)c5c(-c5cc(C(F)(F)F)cc(C(F)(F)F)c5)c4c3=O)c2)c1` (repeat unit) was 299.00 °C; that for `*c1cccc(P(=O)(c2ccccc2)c2cccc(-n3c(=O)c4cc5c(=O)n(*)c(=O)c5c(-c5ccccc5)c4c3=O)c2)c1` (repeat unit) was 325.00 °C.
In the case of `*c1cccc(P(=O)(c2ccccc2)c2cccc(-n3c(=O)c4cc5c(=O)n(*)c(=O)c5cc4c3=O)c2)c1` (repeat unit) it was 331.00 °C; in that of `*c1nc(-c2ccccc2)nc(N(CCCCCCCCCCN(*)c2ccccc2)c2ccccc2)n1` (repeat unit), 62.00 °C; in that of `*c1nc(-c2ccccc2)nc(N(CCCCN(*)c2ccccc2)c2ccccc2)n1` (repeat unit), 94.00 °C.
In the case of `*c1nc(-c2ccccc2)nc(N(c2ccccc2)c2ncnc(N(*)c3ccccc3)n2)n1` (repeat unit), the glass transition temperature worked out at 279.00 °C.
For the compound `*c1nc(C(F)(F)C(F)(F)C(F)(F)F)nc(C(F)(F)C(F)(F)C(F)(F)C(F)(F)C(F)(F)C(*)(F)F)n1` (repeat unit), the glass transition temperature is -5.00 °C.
Turning to `*c1nnc(-c2cc(CCCCCCCCCC)c(-c3sc(-c4nnc(-c5cc(OCCCCCCCC)c(*)cc5OCCCCCCCC)o4)cc3CCCCCCCCCC)s2)o1` (repeat unit), the glass transition temperature came to 53.80 °C.
